From PMC13087548, “The Use of DeepQSAR Models for the Discovery of Peptides With Enhanced Antimicrobial and Antibiofilm Potential” (Molecular Informatics, 2026)
Like-named read-outs stand apart in the source and are kept apart here. Ends that are not written are not given here. Peptide text beside a SMILES is read from it.

Tests used:
[1] = test system: methicillin‐resistant Staphylococcus aureus (MRSA) biofilm; details: read-out: IC50 Biofilm; MRSA in 10% tryptic soy broth + 0.1% glucose, overnight 37°C, adhered biomass stained with 0.1% crystal violet, A595; peptide array samples; nplr fit
Description: (§1) Peptide arrays on cellulose membranes were made by Kinexus Bioinformatics Corporation (Vancouver, BC, Canada) and were obtained as cleaved free peptide associated with the punched‐out spot of the cellulose membrane. Stock solutions of the peptide array samples were prepared by dissolving the free peptide in 200 µL of endotoxin‐free sterile water, incubating at room temperature for ~ 1 h, and then transferring the resulting peptide solution to a sterile microfuge tube for subsequent antimicrobial activity assays. The concentration of the stock peptide array samples was determined by measuring the absorbance at 280 nm of the solution (in duplicate) on a BioTek Epoch Microplate Spectrophotometer using the Take3TM Multi‐Volume Plate. A theoretical extinction coefficient of each peptide was determined based on the number of Trp and Try residues1 in the peptide sequence according to the formula: (#Trp) × 5500 M^− ^1 cm^− ^1 + (#Tyr) × 1490 M^− ^1 cm^− ^1, and the concentration of the peptide in solution was calculated according to the Beer–Lambert law. Any Cys residues within the peptide samples were assumed not to be present in a disulfide bond, so their contribution to the extinction coefficient at 280 nm was ignored.
(§2) Peptides were synthesized on peptide arrays and tested as described previously. Briefly, the antimicrobial activity and biofilm inhibition activity of the peptide array samples were assessed against methicillin‐resistant Staphylococcus aureus (MRSA). Briefly, twofold serial dilutions of the peptide array sample (10 μL final volume) were prepared in 96‐well plates and then 90 μL of a 1:100 dilution of an overnight culture of MRSA diluted in 10% tryptic soy broth supplemented with 0.1% glucose was added to each well and the plates were incubated overnight at 37°C. The following day, bacterial growth was quantified by measuring the optical density at 600 nm (OD600) of each sample well while the amount of biofilm was quantified by rinsing the wells of the plate with distilled water and staining the adhered biomass with 0.1% crystal violet solution. The amount of adhered biomass was quantified by recording the absorbance at 595 nm (A595). Dose–response curves were drawn for each peptide based on the bacterial growth (OD600) or biofilm inhibition (A595) and normalizing the percent of peptide inhibition relative to untreated bacteria (100% growth) or sterile media (0% growth). The concentration of peptide required to inhibit 50% of bacterial or biofilm growth (IC50) was calculated by nonlinear regression fit of the dose–response curves using the N‐Parameter Logistic Regression (nplr) package.

human red blood cells = test: Hemolysis assay; format: cell-based
From the text: (§3) To evaluate the safety profiles of predicted peptides, we conducted hemolysis and PBMC cytotoxicity assays on three representative candidates (J20: LKIKVHIYRMKR, J28: FRVCYRGICYRR, J39: […]). These peptides were randomly selected from the top 22 peptides predicted by our classification model to outperform the reference peptide IDR‐1018 in antibiofilm activity. All three peptides were synthesized at > 95% purity and tested in standard in vitro assays.

human PBMCs = test: PBMC cytotoxicity assay; format: cell-based
From the text: as §3

biofilm = test: Minimum biofilm inhibitory concentration (MBIC); format: cell-based; details: peptides > 95% purity; Table S1
[2] = test system: methicillin‐resistant Staphylococcus aureus (MRSA); details: read-out: IC50 antimicrobial (planktonic); MRSA in 10% tryptic soy broth + 0.1% glucose, overnight 37°C, growth by OD600; peptide array samples; nplr fit
Description: as §1, §2

Compound: RVVRRKGRIYIL-NH2 [compound 81]
- IC50 [1]: 440 nM

Compound: LKIKVHIYRMKR-NH2 [compound 20]
- IC50 [1]: 350 nM
- Hemolysis IC50 (human red blood cells; red cells of human): > 250 µg/mL
- PBMC IC50 (cytotoxicity) (human PBMCs): 166.1 µg/mL
- Biofilm-inhibitory concentration (MBIC) (biofilm): 1 to 4 µg/mL

Compound: WKKKGRMRWKWI-NH2 [compound 10]
- IC50 [1]: 270 nM

Compound: GLKSFARVLKKI-NH2 [compound 33]
- IC50 [2]: 1150 nM

Compound: VRLIVAVRIWRR-NH2 [IDR‐1018, reference compound]
- IC50 [1]: 1420 nM
- IC50 [2]: 1730 nM

Compound: RALKKIIKRLCR-NH2 [compound 86]
- IC50 [1]: 380 nM
- IC50 [2]: 710 nM

Compound: LFKFLGKKVLKT-NH2 [compound 9]
- IC50 [1]: 470 nM

Compound: RLHGFLIRMRTR-NH2 [compound 44]
- IC50 [2]: 1190 nM

Compound: RGFVRLKKWFNI-NH2 [compound 39]
- IC50 [1]: 230 nM
- Hemolysis IC50 (human red blood cells; human erythrocytes, concentration range 1–256 μg/mL, peptides > 95% purity): > 250 µg/mL
- PBMC IC50 (cytotoxicity) (human PBMCs; human PBMCs, peptides > 95% purity): > 250 µg/mL
- Biofilm-inhibitory concentration (MBIC) (biofilm): 1 to 4 µg/mL

Compound: RRRAKGRIRLIV-NH2 [compound 62]
- IC50 [2]: 890 nM

Compound: CC[C@H](C)[C@H](NC(=O)CNC(=O)[C@H](CCCNC(=N)N)NC(=O)[C@H](Cc1ccc(O)cc1)NC(=O)[C@H](CS)NC(=O)[C@@H](NC(=O)[C@H](CCCNC(=N)N)NC(=O)[C@@H](N)Cc1ccccc1)C(C)C)C(=O)N[C@@H](CS)C(=O)N[C@@H](Cc1ccc(O)cc1)C(=O)N[C@@H](CCCNC(=N)N)C(=O)N[C@@H](CCCNC(=N)N)C(N)=O [compound 28] (H-FRVCYRGICYRR-NH2; N-terminus assumed)
- Hemolysis IC50 (human red blood cells; red cells of human): > 250 µg/mL
- PBMC IC50 (cytotoxicity) (human PBMCs): > 250 µg/mL

Compound: RARGRKRLVVTI-NH2 [compound 40]
- IC50 [1]: 300 nM

Compound: KLVRRKGRLYVI-NH2 [compound 50]
- IC50 [1]: 400 nM
